{"source": "paper PMC11259170", "about": "“Small-molecule probe for IBD risk variant GPR65 I231L alters cytokine signaling networks through positive allosteric modulation” (Science Advances, 2024)", "key": {"[1]": {"biological_target": "T1, hGPR65 I231L-SmBiT (Homo sapiens, UniProt Q8IYL9, I231L)", "T1 construct": "expressed in transfected cells; host or cells: Expi293F (Gibco), transient transfection", "T1 sequence (Q8IYL9 whole entry I231L)": "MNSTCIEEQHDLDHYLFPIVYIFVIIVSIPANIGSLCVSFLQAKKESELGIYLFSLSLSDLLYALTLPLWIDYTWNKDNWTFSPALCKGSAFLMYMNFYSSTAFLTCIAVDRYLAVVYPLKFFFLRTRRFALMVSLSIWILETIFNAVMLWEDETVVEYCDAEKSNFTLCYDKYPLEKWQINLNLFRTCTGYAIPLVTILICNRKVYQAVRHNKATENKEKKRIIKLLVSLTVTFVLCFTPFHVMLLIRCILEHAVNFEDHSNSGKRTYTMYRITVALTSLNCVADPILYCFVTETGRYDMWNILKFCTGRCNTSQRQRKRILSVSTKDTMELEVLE", "experiment": "Nano-BiT target engagement, LgBiT-mGs recruitment to hGPR65 I231L-SmBiT", "type": "cell-based", "settings": "10 μM", "procedure": "Target engagement was measured in Expi293F (Gibco, 100044202) cells using the Nano-Glo Live Cell Assay System (Promega, N2011). Nano-BiT plasmids were cloned from GPR65-, GPR4-, and GPR68-Tango plasmids. GPR65-Tango (Addgene plasmid # 66370; http://n2t.net/addgene:66370; RRID:Addgene_66370), GPR4-Tango (Addgene plasmid # 66358; http://n2t.net/addgene:66358; RRID:Addgene_66358), and GPR68-Tango (Addgene plasmid # 66371; http://n2t.net/addgene:66371; RRID:Addgene_66371) were gifts from Bryan Roth. Expi293F cells were transfected 1 day before kinetics with 500 ng of each plasmid using ExpiFectamine 293 Transfection Kit (Gibco, A14525). After 24 hours, cells were collected, washed, and resuspended in room temperature 0.1% PBS-BSA, adjusted to pH 7.4 using 1 M NaOH. Cells were transferred to white opaque 96-well microplates (100 μl per well, PerkinElmer, 6005290), followed by addition of the Nano-Glo Live Cell Reagent (25 μl per well). Baseline luminescence was measured for 10 cycles (1 cycle = 90 s) before adding compounds. All luminescence measurements were made on BMG Labtech PHERAstar FSX. Data analysis was performed using GraphPad Prism."}, "[2]": {"biological_target": "T2, hGPR65 (Homo sapiens, UniProt Q8IYL9)", "T2 construct": "expressed in transfected cells; host or cells: HeLa (ATCC CCL-2), lentiviral transduction, pLX317", "T2 sequence (Q8IYL9 whole entry)": "as the sequence (Q8IYL9 whole entry I231L) above, with L231I counted along it", "experiment": "cAMP detection (Lance Ultra), GPR65 KO HeLa reconstituted with hGPR65; 21K screen dose confirmation", "type": "cell-based", "settings": "HeLa GPR65 KO + hGPR65, pH 7.1, 30 min, normalized to DMSO and 100 μM forskolin; read-out: WT EC50"}, "[3]": {"biological_target": "T3, mGPR65 (Mus musculus, UniProt Q61038)", "T3 construct": "expressed in transfected cells; host or cells: HeLa (ATCC CCL-2), lentiviral transduction, pLX317", "T3 sequence (Q61038 whole entry)": "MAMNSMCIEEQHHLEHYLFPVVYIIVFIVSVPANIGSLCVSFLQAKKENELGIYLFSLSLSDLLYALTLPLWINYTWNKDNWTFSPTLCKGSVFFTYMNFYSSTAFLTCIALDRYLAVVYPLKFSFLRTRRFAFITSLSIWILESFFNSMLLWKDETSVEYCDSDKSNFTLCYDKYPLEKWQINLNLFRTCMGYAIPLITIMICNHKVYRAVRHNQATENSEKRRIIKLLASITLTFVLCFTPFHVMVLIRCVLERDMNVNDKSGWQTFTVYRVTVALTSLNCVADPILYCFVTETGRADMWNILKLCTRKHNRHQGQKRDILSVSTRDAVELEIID", "experiment": "cAMP detection, GPR65 KO HeLa reconstituted with mGPR65", "type": "cell-based", "settings": "0 to 50 μM, pH 7.2", "procedure": "The Lance Ultra cAMP Kit (PerkinElmer, TRF0264) was used for cAMP detection, and included the following reagents: ULight anti-cAMP antibody, Eu-cAMP tracer, 7.5% BSA Stabilizer solution, and cAMP detection buffer. Stimulation buffer was prepared as described by the kit manufacturer as follows: Hanks buffered saline solution (HBSS, Life Technologies, 14025-126) containing 0.5 mM IBMX (3-isobutyl-1-methylxanthine, Sigma-Aldrich, I7018) and buffered with 1 M Hepes (15630-080). […] HeLa cells were lifted using Versene and then suspended at 2.5 × 10^5 cells/ml in stimulation buffer. Cells were then plated at 20 μl per well (5000 cells per well) in white, opaque OptiPlate 384-well MicroPlates (PerkinElmer, 6007299) using a Thermo Fisher Scientific Combi liquid dispenser. […] Eu-cAMP tracer and Förster resonance energy transfer (FRET) emissions were then read using a PerkinElmer EnVision Multimode plate reader (ENVISION21040010), exciting each well at 320 nm [UV2 (TRF) 320 filter] and reading emissions at 615 nm (Europium 615 filter) and 665 nm (APC665 filter). […]"}, "[4]": {"tested_on": "murine macrophages and T cells", "set-up": "method as in PMID 22445881", "settings": "murine macrophages and T cells ref 33; cited from earlier work"}}, "note": "pEC50: −log10 of the molar value."}
{"smiles": "Cc1ccc(NC(=O)c2cnn3c(O)cc(-c4ccc(COC(C)C)cc4)nc23)nc1", "note": "[BRD5075, O=C(NC1=NC=C(C)C=C1)C2=C3N(N=C2)C(O)=CC(C4=CC=C(COC(C)C)C=C4)=N3]", "values": [{"measurement": "G protein recruitment in cells expressing hGPR65 I231L", "setting": "[1]", "result": "able to recruit G protein"}]}
{"smiles": "CN1N=C(SCc2ccc(Cl)cc2Cl)Sc2c1cnn(C)c2=O", "note": "[BTB09089, reference compound]", "values": [{"measurement": "pEC50", "setting": "[2]", "result": 5.22}, {"measurement": "cAMP response, BTB09089 compared with BRD2813", "setting": "[3]", "result": "more effective"}, {"measurement": "cAMP production through the Gαs-coupled pathway", "setting": "[4]", "result": "increased cAMP production"}]}
